Common to all, as to assay: inhibition of tumour cell growth, NCI panel, 48 h
Experiment [1] deals with OVCAR-8 ovarian.
For experiment [2], the system named is NCI-H522 lung.
Experiment [3] relates to HCT-15 colon.
The test system of experiment [4] is NCI-H23 lung.
Experiment [5] has as its system SF-268 CNS.
The test system of experiment [6] is SK-MEL-28 melanoma.
The test system of experiment [7] is MCF7 breast.
For experiment [8], the system named is NCI-H226 lung.
Experiment [9] concerns LOX IMVI melanoma.
In experiment [10] the test system is MALME-3M melanoma.

Values joined by “and” are separate entries in the source; they are usually repeats but may differ in a detail not shown here. Identical values can stand only once.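 Five concentrations, 48 hours, 96-well plates. GI50 marks 50% less growth. At the TGI there is no net growth.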

`CCCCN(CC)CCCCCCCCCCN1CCCc2cc(OC)ccc21`: the GI50 in experiment [1] is 3.92 µM; in experiment [2] it was 1.66 µM; in experiment [3], 3.3 µM; in experiment [4], 2.16 µM; in experiment [5] it was 6.52 µM; in [6], 2.92 µM. The GI50 is 1.8 µM in experiment [7], 2.8 µM in experiment [8], 1.7 µM in [9] and 2.33 µM in experiment [10]. Also, the TGI in experiment [1] was 13.2 µM; in [2], 3.5 µM; in [3], 13.6 µM; in experiment [4], 6.09 µM; in experiment [5], 32.1 µM; in experiment [6], 7.33 µM. Moreover, the TGI in experiment [7] was found to be 3.59 µM; in experiment [8], 8.16 µM; in experiment [9] it was 3.34 µM; in experiment [10], 4.98 µM.

`CN(CSc1ccc(Cl)cc1)c1ccc(CSc2ccc(Cl)cc2)cc1`: the GI50 was 13.6 µM in experiment [1]; 1.19 µM in experiment [2]; 5.18 µM in experiment [3]; 4.24 µM in experiment [4]; 1.46 µM in experiment [5]; 5.55 µM in experiment [6]. The GI50 was 3.17 µM in experiment [7], 2.16 µM in [8], 1.63 µM in experiment [9] and 12 µM in experiment [10]. For the same molecule, the TGI came to 39.8 µM in experiment [1]; 6.88 µM in [2]; 22.2 µM in [3]; 19.5 µM in [4]; 10.4 µM in [5]; 19.6 µM in experiment [6]. The TGI in experiment [7] amounted to 18.5 µM; in experiment [8], 6.67 µM; in experiment [9], 6.32 µM; in experiment [10], 33.1 µM.

As to `Cn1c(=O)c2[nH]c(CCCc3ccc([N+](=O)[O-])cc3)nc2n(C)c1=O`, the TGI in experiment [1], in experiment [2], in [3], in experiment [4], in [5] and in [6] was greater than 100 µM throughout. The TGI in experiment [7], in [8], in experiment [9] and in [10] was greater than 100 µM each time.

As to `NC(=N\N=C/c1ccc(Cl)cc1Cl)/C(N)=N\N=C/c1ccc(Cl)cc1Cl`, the GI50 in experiment [1] was 20.7 µM; in experiment [2], 63 µM; in experiment [3], greater than 100 µM; in experiment [4], 39.3 µM; in [5], 50.4 µM; in [6], greater than 100 µM. Further, the GI50 in experiment [7] is greater than 73.8 µM; in [8] it was 9.92 µM; in experiment [9], 25.5 µM; in [10], 41.3 µM. Also, the TGI in experiment [1], in [2], in experiment [3], in experiment [4], in [5] and in [6] was greater than 100 µM each time. Besides, the TGI in [7] was greater than 100 µM; in [8] it was 98 µM; in [9], greater than 100 µM; in [10] it was greater than 100 µM.

For `O=C(Nc1ccc(I)cc1)c1cccc([N+](=O)[O-])c1O`, the GI50 is 4.37 µM in [1]; 2.61 µM in [2]; 3.36 µM in [3]; 2.26 µM in [4]; 4.15 µM in experiment [5]; 4.63 µM in [6]. Further, the GI50 is 2.76 µM in experiment [7], 2.81 µM in experiment [8], 3.28 µM in [9] and 2.47 µM in experiment [10]. The TGI is greater than 100 µM in [1]; 31.1 µM in [2]; 40.9 µM in experiment [3]; 8 µM in experiment [4]; greater than 100 µM in experiment [5]; greater than 100 µM in experiment [6]. Besides, the TGI in experiment [7] is greater than 100 µM; in experiment [8], 33.5 µM; in [9], greater than 100 µM; in experiment [10], 9.12 µM.

Regarding `O=C(/C=C/c1cccc(S(=O)(=O)Nc2ccccc2)c1)NO`, the GI50 in experiment [1] is 0.309 µM and 0.0341 µM; in experiment [2], 0.191 µM and 0.0603 µM; in experiment [3], 1.08 µM and 1.29 µM; in [4], 0.707 µM and 0.112 µM; in experiment [5] it was 1.22 µM and 0.324 µM; in experiment [6], 1 µM and 1.55 µM. Besides, the GI50 in [7] is 0.384 µM and 0.157 µM; in [8], 2.34 µM and 0.694 µM; in experiment [9], 0.259 µM and 0.293 µM; in experiment [10] it was 0.251 µM and 0.0447 µM. Also, the TGI in experiment [1] was 16.9 µM and 17 µM; in [2] it was 1.98 µM and 17.2 µM; in experiment [3], > 48.9 µM and 68.5 µM; in [4], 7.47 µM and 2.69 µM; in experiment [5], 15.6 µM and 8.91 µM; in [6], 10.3 µM and 51.8 µM. Moreover, the TGI in experiment [7] was > 100 µM and 10.4 µM; in experiment [8] it was 11.5 µM and 5.11 µM; in [9], 1.62 µM and 10.2 µM; in experiment [10] it was 13.8 µM and 3.12 µM.

Turning to `COc1ccc(C2CC(c3ccc4ccccc4c3)=NN2c2nc(O)c(C3=c4cc(OC)ccc4=NC3=O)s2)cc1` (stereo not given), the GI50 in [1] is 0.0646 µM; in [2] it was 0.0519 µM; in [3], 0.0973 µM; in experiment [4], 0.0348 µM; in experiment [5], 0.0615 µM; in [6], 0.0932 µM. Also, the GI50 in [7] is 0.0315 µM; in [8], 0.0581 µM; in experiment [9], 0.0359 µM; in experiment [10], 0.0243 µM. Moreover, the TGI in [1] turned out to be 1.26 µM; in [2] it was 0.154 µM; in experiment [3], 1.09 µM; in experiment [4] it was 0.191 µM; in experiment [5], 0.241 µM; in experiment [6], 0.334 µM. Moreover, the TGI was 0.75 µM in experiment [7], 0.248 µM in [8], 0.127 µM in [9] and 0.0655 µM in experiment [10].
